Measured values as given in patent US5466811A, “Dioxolenylmethyl carbamates pro moieties for amine drugs” (Merck & Co., Inc., priority 1994, dated 1995).

How the values were obtained:
in vitro = in vitro ADME; conditions: rat, plasma
Protocol: The process of hydrolysis of the dioxolenylmethyl carbamate of 3,4-dimethoxyphenethylamine was studied by measuring the formation of dimethoxyphenethylamine at 37° C. in neat rat plasma. The reaction was initiated by adding a dimethyl sulfoxide (DMSO) solution of the carbamate to the reaction medium pre-equilibrated at 37° C. in a thermostated water bath. The initial concentrations of the carbamate in rat plasma was 4.3×10^-3 M and the concentration of DMSO was 10%. Samples (100 μL of acetonitrile, vortex mixed for 30 seconds to precipitate the plasma proteins, and centrifuged at 10,000 X g for 5 minutes. The supematants were injected directly and analyxed by HPLC. The HPLC column used was a 10 cm spheri-5 RP-18 column combined with a similar 3 cm guard column. The mobile phase used for the analysis of dimethoxyphenethylamine was 30% v/v of acetonitrile in water containing 0.5 mL/L of 85% phosphoric acid and 0.5 mL/L of triethylamine at a flow rate of 2 mL per minute. The concentration was measured at 280 nm using a variable wave length UV detector. The retention time of dimethoxyphenethylamine under these conditions was 5.8 minutes.

rats = conditions: oral administration, Sakamoto, et al, Chem. Pharm. Bull., 1985, 33, 4870; cited from earlier work

half-life at 4300 µM (in vitro) [min]	Structure (SMILES)	regeneration of the parent drug (rats)
11	COc1ccc(CCNC(=O)OCc2oc(=O)oc2C)cc1OC [5'-methyl-2'-oxo-1',3'-dioxol-4'-enyl-4'-methylcarbamoyl-3,4-dimethoxyphenethylamine]	–
–	CCn1cc(C(=O)O)c(=O)c2cc(F)c(N3CCN(Cc4oc(=O)oc4C)CC3)cc21 [alkylated nofloxacin]	regenerated the parent drug
